According to publication PMC8741243 (Journal of Enzyme Inhibition and Medicinal Chemistry, 2022):
Where two headings read alike, the source gives them in different places.

Tests used:
Assay in all cases: stopped-flow CO2 hydration
Assay type in all cases: biochemical
[1] = biological target: T1, NgCAα (Neisseria gonorrhoeae, UniProt Q50940)
T1 construct: gene cah; recombinant, obtained in-house as described earlier
T1 sequence (Q50940 27-252): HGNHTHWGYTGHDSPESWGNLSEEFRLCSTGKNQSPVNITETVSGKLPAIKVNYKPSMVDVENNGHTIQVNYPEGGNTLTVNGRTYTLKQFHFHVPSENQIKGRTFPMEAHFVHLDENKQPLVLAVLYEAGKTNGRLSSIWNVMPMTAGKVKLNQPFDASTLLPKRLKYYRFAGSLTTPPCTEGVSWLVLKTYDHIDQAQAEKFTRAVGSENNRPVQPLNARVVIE

[2] = biological target: T2, VchCAα (Vibrio cholerae, UniProt Q9KMP6); settings: read-out: Ki (μM)^a / VchCAα; […] h preincubation at […] °C; […] HEPES pH […] NaClO4; prodrug, lactone hydrolysed by CA esterase activity
T2 construct: gene VC_A0274
T2 sequence (Q9KMP6 21-239 limits assumed): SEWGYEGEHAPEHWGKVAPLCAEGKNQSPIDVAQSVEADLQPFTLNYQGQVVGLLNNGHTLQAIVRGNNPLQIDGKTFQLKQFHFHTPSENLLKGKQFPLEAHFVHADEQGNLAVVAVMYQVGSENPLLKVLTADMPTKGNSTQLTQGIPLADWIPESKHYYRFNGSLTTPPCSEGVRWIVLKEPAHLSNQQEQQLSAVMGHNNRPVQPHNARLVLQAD

[3] = biological target: T3, hCA I (Homo sapiens, UniProt P00915)
T3 construct: gene CA1; recombinant, obtained in-house as described earlier
T3 sequence (P00915 2-261): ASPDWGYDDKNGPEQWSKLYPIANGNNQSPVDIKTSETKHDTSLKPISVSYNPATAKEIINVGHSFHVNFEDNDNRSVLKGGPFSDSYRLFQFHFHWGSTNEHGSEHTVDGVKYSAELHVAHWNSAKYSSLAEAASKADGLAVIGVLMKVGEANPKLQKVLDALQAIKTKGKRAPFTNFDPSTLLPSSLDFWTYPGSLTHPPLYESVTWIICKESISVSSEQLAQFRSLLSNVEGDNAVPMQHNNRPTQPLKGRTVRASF

[4] = biological target: T4, hCA II (Homo sapiens, UniProt P00918)
T4 construct: gene CA2; recombinant, obtained in-house as described earlier

Question: What does the source list for `O=c1ccc2ccccc2o1` [compound 1, simple unsubstituted coumarin 1]?
Answer: Ki ([1]; read-out: Ki (μM)^a / NgCAα): 81.6 µM; Ki [2]: 94.7 µM

Question: What does the source list for `O=c1ccc2cc(O)ccc2o1` [compound 2, 2]?
Answer: Ki ([3]; read-out: Ki (μM)^a / hCA I): 192 µM; Ki ([1]; read-out: Ki (μM)^a / NgCAα): 92.4 µM; Ki [2]: 77.5 µM; Ki ([4]; read-out: Ki (μM)^a / hCA II): 683 µM

Question: `O=c1ccc2ccc(O)cc2o1` [compound 3, 3] was tested. Which Ki ([1]; read-out: Ki (μM)^a / NgCAα) did it give?
Answer: Its Ki is 77.1 µM.

Question: What about the Ki [2] of the same compound?
Answer: Its Ki is 68.5 µM.

Question: Which Ki [3] does the source give for `O=c1cc(O)c2ccccc2o1` [compound 4, 4] here?
Answer: Its Ki is 394 µM.

Question: What about the Ki [1] of the same compound?
Answer: Its Ki is 94.7 µM.

Question: And the Ki [2]?
Answer: The Ki was 92.2 µM.

Question: And the Ki [4]?
Answer: The Ki was 513 µM.

Question: What does the source list for `O=c1oc2ccccc2cc1O` [compound 5, 5]?
Answer: Ki ([3]; read-out: Ki (μM)^a / hCA I): 490 µM; Ki ([1]; read-out: Ki (μM)^a / NgCAα): 110 µM; Ki [2]: 290 µM; Ki ([4]; read-out: Ki (μM)^a / hCA II): 625 µM

Question: With `Nc1ccc2c(C(F)(F)F)cc(=O)oc2c1` [compound 7, 7] as the compound, how does the Ki ([3]; read-out: Ki (μM)^a / hCA I) read?
Answer: Its Ki is 940 µM.

Question: What about the Ki ([1]; read-out: Ki (μM)^a / NgCAα) of the same compound?
Answer: The Ki was 97.1 µM.

Question: And the Ki [2]?
Answer: Its Ki is 95 µM.

Question: What about the Ki ([4]; read-out: Ki (μM)^a / hCA II) of the same compound?
Answer: Its Ki is 733 µM.

Question: Which Ki ([3]; read-out: Ki (μM)^a / hCA I) does the source give for `CCN(CC)c1ccc2c(C)cc(=O)oc2c1` [compound 8, 4-methyl-7-diethylamino-coumarin] here?
Answer: Its Ki is 517 µM.

Question: And the Ki ([1]; read-out: Ki (μM)^a / NgCAα)?
Answer: The Ki was 28.6 µM.

Question: What about the Ki [2] of the same compound?
Answer: Its Ki is 53.9 µM.

Question: What about the Ki ([4]; read-out: Ki (μM)^a / hCA II) of the same compound?
Answer: Its Ki is 559 µM.

Question: Which Ki ([3]; read-out: Ki (μM)^a / hCA I) does the source give for `CC(=O)c1c(O)ccc2ccc(=O)oc12` [compound 9, 7-hydroxy-8-acetyl-coumarin] here?
Answer: The Ki was 949 µM.

Question: And the Ki ([1]; read-out: Ki (μM)^a / NgCAα)?
Answer: The Ki was 42.5 µM.

Question: And the Ki [2]?
Answer: The Ki was 39.8 µM.

Question: What about the Ki ([4]; read-out: Ki (μM)^a / hCA II) of the same compound?
Answer: The Ki was 646 µM.

Question: How did the Ki ([3]; read-out: Ki (μM)^a / hCA I) turn out when `Cc1cc2ccc(O)cc2oc1=O` [compound 10, 10] was run?
Answer: Its Ki is 137 µM.

Question: What about the Ki ([1]; read-out: Ki (μM)^a / NgCAα) of the same compound?
Answer: Its Ki is 68 µM.

Question: And the Ki [2]?
Answer: The Ki was 66.8 µM.

Question: What about the Ki ([4]; read-out: Ki (μM)^a / hCA II) of the same compound?
Answer: Its Ki is 297 µM.

Question: Which results are given for `CCOC(=O)Cc1cc(=O)oc2cc(O)ccc12` [compound 11, 11]?
Answer: Ki ([3]; read-out: Ki (μM)^a / hCA I): 749 µM; Ki ([1]; read-out: Ki (μM)^a / NgCAα): 469 µM; Ki [2]: 439 µM; Ki ([4]; read-out: Ki (μM)^a / hCA II): 876 µM

Question: How did the Ki ([3]; read-out: Ki (μM)^a / hCA I) turn out when `O=c1cc(O)c2ccc(O)cc2o1` [compound 12, 12] was run?
Answer: The Ki was 182 µM.

Question: And the Ki ([1]; read-out: Ki (μM)^a / NgCAα)?
Answer: The Ki was 77.6 µM.

Question: What about the Ki [2] of the same compound?
Answer: The Ki was 66 µM.

Question: What about the Ki ([4]; read-out: Ki (μM)^a / hCA II) of the same compound?
Answer: The Ki was 758 µM.

Question: Which results are given for `CCOC(=O)c1cc2ccc(O)cc2oc1=O` [compound 13, 13]?
Answer: Ki ([3]; read-out: Ki (μM)^a / hCA I): 900 µM; Ki ([1]; read-out: Ki (μM)^a / NgCAα): 395 µM; Ki [2]: 432 µM; Ki ([4]; read-out: Ki (μM)^a / hCA II): 961 µM

Question: With `CC(=O)c1cc2ccc(O)cc2oc1=O` [compound 14, 14] as the compound, how does the Ki ([3]; read-out: Ki (μM)^a / hCA I) read?
Answer: Its Ki is 470 µM.

Question: And the Ki ([1]; read-out: Ki (μM)^a / NgCAα)?
Answer: The Ki was 395 µM.

Question: What about the Ki [2] of the same compound?
Answer: The Ki was 303 µM.

Question: What about the Ki ([4]; read-out: Ki (μM)^a / hCA II) of the same compound?
Answer: Its Ki is 786 µM.
